Reference: US20060093561A1, “Method of treating microorganisms in the oral cavity” (priority 2004, published 2006)

Columns and labels:
P. gingivalis [1] = test: Photodynamic therapy assay, serum and blood bacteria suspensions; assay type: cell-based, Porphyromonas gingivalis 381
Procedure: (§1) An overnight bacterial culture was removed from the anaerobic chamber and centrifuged at 2400×g for 5 minutes in an IEC21000R centrifuge (Fisher). The supernatant was discarded and the pellet washed and resuspended three times in PBS. The bacterial suspension was then adjusted to a working concentration of approximately 10^10 colony forming units (cfu)/ml by measurement of optical density at 600 nm (Pharmacia LKB Ultraspec III). The suspension was returned to the anaerobic chamber and aliquoted in pre-reduced 1.5 ml microfuge tubes (Fisher) in order to decrease oxygen exposure of the anaerobic suspension.
(§2) Prior to light irradiation, 75 μl of calibrated bacterial suspension (7.5×10^8 cfu) was mixed with 75 μl of TBO stock solution (100 μg/ml) in a sterile tube, for a final mixture concentration of 5×10^9 cfu/ml and 50 μg/ml TBO. The mixture was then incubated at room temperature for 5 min. in the dark. TBO negative controls were incubated with an equal volume of sterile PBS instead of TBO. The mixture was then added to a sterilized perfusion chamber (Cedarlane Laboratories) mounted on a glass coverslip. The perfusion chamber was 500 μm thick, and so attenuation of the treatment light by the TBO was only 30% at 50 μg/ml. For most treatments at a concentration of 12.5 μg/ml TBO, the attenuation of treatment light was only 9%. The inoculated perfusion chamber was irradiated under the desired conditions with a light beam whose diameter covered the perfusion chamber's transparent surface. […] Colony counts determined the number of bacterial survivors and they were expressed as cfu/ml. […]

F. nucleatum = test: Photodynamic therapy assay after serum washout of bacteria; assay type: cell-based, Fusobacterium nucleatum 1213; conditions: xenon lamp 10 J/cm^2, 100 mW/cm^2, 12.5 μg/ml TBO
Excerpt: (§3) The following bacteria were used in these experiments and cultivated in an anaerobic chamber (available commercially from Coy Manufacturing Co.; AnnArbor, Mich., USA): Porphyromonas gingivalis 381; Prevotella intermedia 25611; Actinobacillus actinomycetemcomitans UT32; Fusobacterium nucleatum 1213; Bacteroides forsythus 43037. P. gingivalis and P. intermedia strains were subcultured weekly in Todd Hewitt Broth (available commercially from Fisher Scientific; Nepean, Ontario, Canada; hereinafter referred to as Fisher) supplemented with 5 μg/ml hemin (Sigma-Aldrich Co.; Oakville, Ontario, Canada; hereinafter referred to as Sigma) and 1 μg/ml menadione (Sigma). A. actinomycetemcomitans was subcultured in Tryptic Soy Broth (Fisher) containing 6 g/l yeast extract (Fisher) and 8 ml of 1.5% sodium bicarbonate, filter sterilized (Fisher). F. nucleatum was subcultured in Todd Hewitt Broth. […]
(§4) Prior to light irradiation, 75 μl of calibrated bacterial suspension (7.5×10^8 cfu) was mixed with 75 μl of TBO stock solution (100 μg/ml) in a sterile tube, for a final mixture concentration of 5×10^9 cfu/ml and 50 μg/ml TBO. […] Colony counts determined the number of bacterial survivors and they were expressed as cfu/ml. […]

B. forsythus = test: as above; assay type: cell-based, Bacteroides forsythus 43037; conditions: xenon lamp 10 J/cm^2, 100 mW/cm^2, 12.5 μg/ml TBO
Excerpt: as §3, §4

[2] = Storage stability of TBO stock solution; assay type: physicochemical; conditions: 1 mg/ml in PBS, filter sterilized, dark tubes at −20° C., up to 3 months
Procedure: (§5) The photosensitizer TBO (Sigma) was dissolved in Dulbecco's Phosphate Buffered Saline (PBS) (Sigma) to a concentration of 1 mg/ml under ambient light. […] The stock was diluted to appropriate concentrations with PBS as required.

A. actinomycetemcomitans = test: Photodynamic therapy assay after serum washout of bacteria; assay type: cell-based, Actinobacillus actinomycetemcomitans UT32; conditions: xenon lamp 10 J/cm^2, 100 mW/cm^2, 12.5 μg/ml TBO
Excerpt: as §3, §4

P. gingivalis [3] = test: Photodynamic therapy assay, bacteria suspended in PBS; assay type: cell-based, Porphyromonas gingivalis 381; conditions: for killing of P. gingivalis: light dose 2.2 J/cm^2, 50 μg/ml TBO, 5 min incubation
Excerpt: The following bacteria were used in these experiments and cultivated in an anaerobic chamber (available commercially from Coy Manufacturing Co.; AnnArbor, Mich., USA): Porphyromonas gingivalis 381; Prevotella intermedia 25611; Actinobacillus actinomycetemcomitans UT32; Fusobacterium nucleatum 1213; Bacteroides forsythus 43037. P. gingivalis and P. intermedia strains were subcultured weekly in Todd Hewitt Broth (available commercially from Fisher Scientific; Nepean, Ontario, Canada; hereinafter referred to as Fisher) supplemented with 5 μg/ml hemin (Sigma-Aldrich Co.; Oakville, Ontario, Canada; hereinafter referred to as Sigma) and 1 μg/ml menadione (Sigma). A. actinomycetemcomitans was subcultured in Tryptic Soy Broth (Fisher) containing 6 g/l yeast extract (Fisher) and 8 ml of 1.5% sodium bicarbonate, filter sterilized (Fisher). F. nucleatum was subcultured in Todd Hewitt Broth. B. forsythus was subcultured in Brain Heart Infusion Broth (95 ml) (Fisher) supplemented with 0.001 g N-acetylmuramic acid (Sigma) in 5 ml Horse Serum (Cedarlane Laboratories; Hornby, Ontario, Canada), filter sterilized. Prior to experiments, a fresh broth tube was inoculated and allowed to grow overnight at 37° C. in the anaerobic chamber.
A 100 Watt red-filtered xenon fibre optic light source having a bandwidth of 620-640 nm (available commercially from EXFO, Inc.; Mississauga, Ontario, Canada) was used in these experiments. […] Light dose for each source was calculated by the cross product of the TBO absorption spectrum and light spectrum.
as §5, §1
Prior to light irradiation, 75 μl of calibrated bacterial suspension (7.5×10^8 cfu) was mixed with 75 μl of TBO stock solution (100 μg/ml) in a sterile tube, for a final mixture concentration of 5×10^9 cfu/ml and 50 μg/ml TBO. The mixture was then incubated at room temperature for 5 min. in the dark. TBO negative controls were incubated with an equal volume of sterile PBS instead of TBO. The mixture was then added to a sterilized perfusion chamber (Cedarlane Laboratories) mounted on a glass coverslip. The perfusion chamber was 500 μm thick, and so attenuation of the treatment light by the TBO was only 30% at 50 μg/ml. For most treatments at a concentration of 12.5 μg/ml TBO, the attenuation of treatment light was only 9%. The inoculated perfusion chamber was irradiated under the desired conditions with a light beam whose diameter covered the perfusion chamber's transparent surface. Upon completion, the mixture was removed and serially diluted in PBS and each dilution was plated on the following media: for P. gingivalis, P. intermedia, and F. nucleatum, Trypticase Soy Agar (Fisher) supplemented with 5 g/l yeast extract, 5 μg/ml hemin, 1 μg/ml menadione, 50 ml/l defibrinated sheep's blood (Oxoid, Inc.; Nepean, Ontario, Canada); for B. forsythus, Trypticase Soy Agar supplemented with 4 g/L yeast extract, 4 g/L trypticase peptone (Fisher), N-acetymuramic acid (10 mg/ml stock filter sterilized into medium to 10 mg/l); and for A. actinomycetemcomitans, Tryptic Soy Agar. […]

P. intermedia = test: Photodynamic therapy assay after serum washout of bacteria; assay type: cell-based, Prevotella intermedia 25611; conditions: xenon lamp 10 J/cm^2, 100 mW/cm^2, 12.5 μg/ml TBO
Excerpt: as §3, §4

P. gingivalis [4] = test: as above; assay type: cell-based, Porphyromonas gingivalis 381
Procedure: as §1
as §2, with “μg/ml.” for “μg/ml. For most treatments at a concentration of 12.5 μg/ml TBO, the attenuation of treatment light was only 9%. The inoculated perfusion chamber was irradiated under the desired conditions with a light beam whose diameter covered the perfusion chamber's transparent surface.”

[5] = xenon lamp 6.3 J/cm^2, 100 mW/cm^2, 12.5 μg/ml TBO

Cc1cc2nc3ccc(N(C)C)cc3[s+]c2cc1N [TBO, toluidine blue O]
P. gingivalis killing with serum (P. gingivalis [1]; FBS 50% (v/v), xenon lamp 6.3 J/cm^2, 100 mW/cm^2, 12.5 μg/ml TBO): 3.05±1.02 logs
maximum blood resuspended P. gingivalis kill (P. gingivalis [1]; defibrinated sheep's blood, xenon lamp 20 J/cm^2, 100 mW/cm^2, 12.5 μg/ml TBO): 2.85±0.33 logs
kill of blood suspended P. gingivalis compared to TBO absent controls at higher light doses (P. gingivalis [1]; defibrinated sheep's blood, xenon lamp 100 mW/cm^2, 12.5 μg/ml TBO, light doses above 10 J/cm^2): ~3 log
F. nucleatum kill (F. nucleatum): 4.7±0.72 logs
B. forsythus killing (B. forsythus): 3.92±0.68 logs
storage stability of stock solution [2]: without a loss in potency
A. actinomycetemcomitans kill (A. actinomycetemcomitans): 5.51±1.34 logs
increase in bacterial killing, xenon lamp versus He—Ne laser (P. gingivalis [3]; 2.2 J/cm^2, 50 μg/ml TBO): ~10 fold
reduction in viable bacteria (P. gingivalis [3]; He—Ne laser, 2.2 J/cm^2, 50 μg/ml TBO): approximately 270 ×
killing of P. gingivalis (P. gingivalis [3]; He—Ne laser): 2.43±0.39 logs
killing of P. gingivalis (P. gingivalis [3]; red-filtered xenon lamp): 3.34±0.24 logs
P. gingivalis kill in the absence of serum (P. gingivalis [3]; [5]): 6.02±0.76 logs
kill of P. gingivalis at each TBO concentration tested (P. gingivalis [3]; xenon lamp 6.3 J/cm^2 and 100 mW/cm^2, each drug concentration incl. 3.125, 6.25 and 12.5 μg/ml): 5 logs
kill of P. gingivalis (P. gingivalis [3]; xenon lamp 10 mW/cm^2, total light dose 2.2 J/cm^2, 50 μg/ml TBO): 2.12±0.36 logs
kill of P. gingivalis (P. gingivalis [3]; xenon lamp 25 mW/cm^2, total light dose 2.2 J/cm^2, 50 μg/ml TBO): 3.34±0.41 logs
bacterial kill of P. gingivalis (P. gingivalis [3]; xenon lamp 100 mW/cm^2, light dose 6.3 J/cm^2, 50 μg/ml TBO): 5 logs
kill of P. gingivalis (P. gingivalis [3]; xenon lamp 100 mW/cm^2, total light dose 2.2 J/cm^2, 50 μg/ml TBO): 3.41±0.58 logs
P. intermedia kill (P. intermedia): 5.33±0.62 logs
P. gingivalis killing after serum washout (P. gingivalis [4]; [5]): 4.71±1.07 logs
P. gingivalis kill after serum washout (P. gingivalis [4]; xenon lamp 10 J/cm^2, 100 mW/cm^2, 12.5 μg/ml TBO): 5.48±0.68 logs
